Laboratory results as given in ChEMBL document CHEMBL5113489, “Design, synthesis, and biological evaluation of membrane-active honokiol derivatives as potent antibacterial agents” (Eur J Med Chem, 2022).
The source made the active and inactive calls. The calls are words filed in the database; no cut-off is given here.

Tests used:
[1] = system: Staphylococcus aureus; assay: Antibacterial activity against Staphylococcus aureus ATCC 43300 assessed as bacterial killing at 8XMIC incubated for 3 hrs and measured by time-kill kinetic study; assay type: functional
[2] = system: Escherichia coli; assay: Anti-biofilm activity in Escherichia coli ATCC 25922 assessed as inhibition of biofilm formation at 1 ug/ml; assay type: functional
[3] = Toxicity in septicemia mouse model infected with Staphylococcus aureus ATCC 43300 assessed as effect on liver at 5 to 10 mg/kg, administered every 12 hrs for 3 days measured by histopathological analysis; assay type: organism-based; conditions: in vivo, dose 5-10 mg/kg
[4] = system: Staphylococcus aureus; assay: Anti-biofilm activity in Staphylococcus aureus ATCC 43300 assessed as disruption rate of biofilm at 1 ug/ml measured by crystal violet staining method; assay type: functional; conditions: dose 1 µg/ml
[5] = system: Staphylococcus aureus; assay: In vivo antibacterial activity against Staphylococcus aureus ATCC 43300 in septicemia mouse model assessed as log reduction in bacterial load in liver at 10 mg/kg, administered every 12 hrs for 3 days; assay type: functional
[6] = system: Escherichia coli; assay: Antibacterial activity against Escherichia coli ATCC 25922; assay type: functional
[7] = system: Escherichia coli; assay: Anti-biofilm activity in Escherichia coli ATCC 25922 assessed as inhibition of biofilm formation at 16 ug/ml; assay type: functional
[8] = system: Pseudomonas aeruginosa; assay: Antibacterial activity against Pseudomonas aeruginosa ATCC 27853; assay type: functional
[9] = system: Staphylococcus aureus; assay: Anti-biofilm activity in Staphylococcus aureus ATCC 43300 assessed as disruption rate of biofilm at 4 ug/ml measured by crystal violet staining method; assay type: functional; conditions: dose 4 µg/ml
[10] = system: Cell membrane; assay: Induction of cell membrane disruption in Staphylococcus aureus ATCC 43300 assessed as increase in fluorescence intensity at 8 times MIC measured after 2 hrs by DAPI staining based fluorescence microscopic analysis
[11] = system: Cell membrane; assay: Induction of cell membrane disruption in Escherichia coli ATCC 25922 assessed as increase in fluorescence intensity at 8 times MIC measured after 2 hrs by PI staining based fluorescence microscopic analysis; assay type: subcellular
[12] = system: Escherichia coli; assay: Anti-biofilm activity in Escherichia coli ATCC 25922 assessed as inhibition of biofilm formation at 4 ug/ml; assay type: functional
[13] = system: Escherichia coli; assay: Anti-biofilm activity in Escherichia coli ATCC 25922 assessed as disruption rate of biofilm at 32 ug/ml measured by crystal violet staining method; assay type: functional; conditions: dose 32 µg/ml
[14] = system: Staphylococcus aureus; assay: Anti-biofilm activity in Staphylococcus aureus ATCC 43300 assessed as inhibition of biofilm formation at 8 ug/ml; assay type: functional
[15] = system: Staphylococcus aureus; assay: Anti-biofilm activity in Staphylococcus aureus ATCC 43300 assessed as disruption rate of biofilm at 16 ug/ml measured by crystal violet staining method; assay type: functional; conditions: dose 16 µg/ml
[16] = system: Staphylococcus aureus; assay: In vivo antibacterial activity against Staphylococcus aureus ATCC 43300 in septicemia mouse model assessed as reduction in bacterial load in spleen at 10 mg/kg, administered every 12 hrs for 3 days; assay type: functional; parameters: scale not given: the % may be the effect or the level left
[17] = Cytotoxicity against human HepG2 cells assessed as cell viability at 32 ug/ml measured by SRB assay; assay type: toxicity, cell-based; conditions: at 32 µg/mL, read-out: Activity
[18] = system: Cell membrane; assay: Induction of cell membrane disruption in Escherichia coli ATCC 25922 assessed as increase in fluorescence intensity at 8 times MIC measured after 2 hrs by DAPI staining based fluorescence microscopic analysis
[19] = system: Cell membrane; assay: Induction of cytoplasmic membrane depolarization in Staphylococcus aureus ATCC 43300 assessed as increase in fluorescence intensity at 1 to 8 times MIC measured by DiSC3-5 dye based fluorescence method; assay type: subcellular
[20] = Selectivity index, ratio of HC50 for hemolytic activity in sheep RBC to MIC for antibacterial activity against Staphylococcus aureus ATCC 43300; assay type: toxicity; conditions: sheep red blood cells (erythrocytes)
[21] = system: Staphylococcus aureus; assay: In vivo antibacterial activity against Staphylococcus aureus ATCC 43300 in septicemia mouse model assessed as log reduction in bacterial load in kidney at 10 mg/kg, administered every 12 hrs for 3 days; assay type: functional
[22] = system: Escherichia coli; assay: Anti-biofilm activity in Escherichia coli ATCC 25922 assessed as inhibition of biofilm formation at 8 ug/ml; assay type: functional
[23] = system: Staphylococcus aureus; assay: Anti-biofilm activity in Staphylococcus aureus ATCC 43300 assessed as inhibition of biofilm formation at 0.5 ug/ml; assay type: functional
[24] = system: Staphylococcus aureus; assay: Anti-biofilm activity in Staphylococcus aureus ATCC 43300 assessed as inhibition of biofilm formation at 2 ug/ml; assay type: functional
[25] = system: Cell membrane; assay: Induction of outer membrane permeabilization to NPN in Escherichia coli ATCC 25922 cells assessed as increase in fluorescence intensity at 4 to 32 ug/ml by NPN-probe based fluorescence spectrophotometric analysis; assay type: subcellular; conditions: dose 4-32 µg/ml
[26] = system: Staphylococcus aureus; assay: Anti-biofilm activity in Staphylococcus aureus ATCC 43300 assessed as inhibition of biofilm formation at 1 ug/ml; assay type: functional
[27] = system: Staphylococcus aureus; assay: Anti-biofilm activity in Staphylococcus aureus ATCC 43300 assessed as inhibition of biofilm formation at 4 ug/ml; assay type: functional
[28] = system: Staphylococcus aureus; assay: In vivo antibacterial activity against Staphylococcus aureus ATCC 43300 in septicemia mouse model assessed as reduction in bacterial load in liver at 10 mg/kg, administered every 12 hrs for 3 days; assay type: functional; parameters: scale not given: the % may be the effect or the level left
[29] = system: Escherichia coli; assay: Anti-biofilm activity in Escherichia coli ATCC 25922 assessed as disruption rate of biofilm at 8 ug/ml measured by crystal violet staining method; assay type: functional; conditions: dose 8 µg/ml
[30] = system: Staphylococcus aureus; assay: Anti-biofilm activity in Staphylococcus aureus ATCC 43300 assessed as disruption rate of biofilm at 8 ug/ml measured by crystal violet staining method; assay type: functional; conditions: dose 8 µg/ml
[31] = system: Staphylococcus aureus; assay: Antibacterial activity against Staphylococcus aureus ATCC 43300 assessed as resistance development by measuring fold increase in MIC; assay type: functional
[32] = system: Staphylococcus aureus; assay: Antibacterial activity against Staphylococcus aureus ATCC 25923; assay type: functional
[33] = system: Staphylococcus aureus; assay: Antibacterial activity against Staphylococcus aureus ATCC 43300; assay type: functional
[34] = Cytotoxicity against human HepG2 cells assessed as cell viability at 128 ug/ml measured by SRB assay; assay type: toxicity, cell-based; conditions: dose 128 µg/ml, read-out: Activity
[35] = system: Cell membrane; assay: Induction of inner membrane permeabilization in Escherichia coli ATCC 25922 assessed as increase in PI uptake by measuring increase in fluorescence intensity at 4 to 32 ug/ml by propidium iodide staining based fluorescence analysis; assay type: subcellular; conditions: dose 4-32 µg/ml
[36] = system: Staphylococcus aureus; assay: Anti-biofilm activity in Staphylococcus aureus ATCC 43300 assessed as inhibition of biofilm formation at 0.25 ug/ml; assay type: functional
[37] = system: Staphylococcus aureus; assay: Antibacterial activity against Staphylococcus aureus ATCC 43300 assessed as bacterial killing at 4 x MIC incubated for 9 hrs and measured by time-kill kinetic study; assay type: functional
[38] = system: Cell membrane; assay: Induction of cytoplasmic membrane depolarization in Escherichia coli ATCC 25922 assessed as increase in fluorescence intensity at 1 to 8 times MIC measured by DiSC3-5 dye based fluorescence method; assay type: subcellular
[39] = Hemolytic activity in sheep RBC; assay type: toxicity, cell-based, Ovis aries, Erythrocyte; conditions: sheep red blood cells (erythrocytes)
[40] = system: Staphylococcus aureus; assay: In vivo antibacterial activity against Staphylococcus aureus ATCC 43300 in septicemia mouse model assessed as log reduction in bacterial load in spleen at 10 mg/kg, administered every 12 hrs for 3 days; assay type: functional
[41] = Cytotoxicity against human HepG2 cells assessed as cell viability at 16 ug/ml measured by SRB assay; assay type: toxicity, cell-based; conditions: at 16 µg/mL, read-out: Activity

Structure (SMILES): C=CCc1ccc(OCCC[N+](C)(C)CCCCCC)c(-c2ccc(OCCC[N+](C)(C)CCCCCC)c(CC=C)c2)c1.[Br-].[Br-]
- Activity [1]: 100%
- inhibition at 1 µg/mL [2]: 11.3%
- Activity [3]: Non-Toxic
- Activity [4]: 9.59%
- log(activity) [5]: 2.35
- MIC [6]: 4 µg/mL
- inhibition at 16 µg/mL [7]: 65.4%
- MIC [8]: 16 µg/mL
- Activity [9]: 17.61%
- Activity [10]: Active
- Activity [11]: Active
- inhibition at 4 µg/mL [12]: 35.3%
- Activity [13]: 57.36%
- inhibition at 8 µg/mL [14]: 93.7%
- Activity [15]: 39.12%
- Activity [16]: 99.3%
- viability at 32 ug/ml [17]: 68.1%
- Activity [18]: Active
- Activity [19]: Active
- selectivity ratio [20]: 410
- log(activity) [21]: 1.94
- inhibition at 8 µg/mL [22]: 49.3%
- inhibition at 0.5 µg/mL [23]: 9.72%
- inhibition at 2 µg/mL [24]: 20.1%
- Activity [25]: Active
- inhibition at 1 µg/mL [26]: 12.9%
- inhibition at 4 µg/mL [27]: 91.2%
- Activity [28]: 99.5%
- Activity [29]: 46.42%
- Activity [30]: 28.56%
- fold change (FC) [31]: <4
- MIC [32]: 2 µg/mL
- MIC [33]: 1 µg/mL
- viability at 128 ug/ml [34]: 36.6%
- Activity [35]: Active
- inhibition at 0.25 µg/mL [36]: 4.06%
- Activity [37]: >=99%
- Activity [38]: Active
- HC50 [39]: 410 µg/mL
- log(activity) [40]: 2.19
- viability at 16 ug/ml [41]: 85.4%
